According to EP0354453A2, “Antimicrobial agent for animals” (priority 1988, dated 1990):
Values after ≈ are worked out from the molar mass of the structure shown.

Key:
[1] = system: Escherichia coli; assay: Effect of oral administration on chicken inoculated with Escherichia coli; format: in vivo; details: for Chickens developing disease in air sac (naked eye observation) / No. of dead chickens: 5 tested chickens
Description: Escherichia coli cells collected from infected chicken were cultured overnight in a trypticase soy broth (BBL). 0.2 ml of this culture broth was injected into the trachea of chickens of average body weight of 80 g using a 1 ml disposable injection needle. Beginning 2 hours after the inoculation, feeds to which Compound (1) had been added in the amount of 50 ppm, 25 ppm, or 12.5 ppm were freely given to the chickens for 5 days. Following the administration of Compound (1) the chickens were given feed with no addition of drug for 5 days. The surviving chickens were sacrificed and dissected. After examination of the degree of disease in the air sac, Escherichia coli in the trachea, lung, and air sac were quantitatively determined. […]

[2] = system: Bordetella bronchiaseptica AR3; assay: in vitro antimicrobial activity (MIC), agar dilution, Part 1; format: cell-based; details: Bordetella bronchiaseptica AR3, Pig; Mueller Hinton agar, 37°C, 18-24 hours
Description: (§1) Test microorganisms listed in Table 2 were cultured overnight in heart infusion nutrient broth (produced by Eiken Chemical Co., Ltd.). Culture broth containing about 10⁸/ml cells was diluted to a volume of 100 times. An aliquot (about 0.05 ml) of the diluted broth was inoculated onto a Mueller Hinton agar plate (produced by Eiken Chemical Co., Ltd.) to which Compound No. 1 was added in a prescribed concentration. […]

[3] = system: Escherichia coli 442; assay: as above; format: cell-based; details: Escherichia coli 442, Chicken; Mueller Hinton agar, 37°C, 18-24 hours
Description: as §1

[4] = system: Staphylococcus aureus Aichi 2; assay: as above; format: cell-based; details: AICHI2; Staphylococcus aureus Aichi 2, Chicken; Mueller Hinton agar, 37°C, 18-24 hours
Description: as §1

[5] = system: Salmonella typhimurium 101; assay: as above; format: cell-based; details: Salmonella enterica; Salmonella typhimurium 101, Chicken; Mueller Hinton agar, 37°C, 18-24 hours
Description: as §1

[6] = system: Escherichia coli 164; assay: as above; format: cell-based; details: Escherichia coli 164, Pig; Mueller Hinton agar, 37°C, 18-24 hours
Description: as §1

[7] = system: Escherichia coli 15-4; assay: as above; format: cell-based; details: 154; Escherichia coli 15-4, Cow; Mueller Hinton agar, 37°C, 18-24 hours
Description: as §1

[8] = system: Salmonella typhimurium 595; assay: as above; format: cell-based; details: Salmonella enterica; Salmonella typhimurium 595, Pig; Mueller Hinton agar, 37°C, 18-24 hours
Description: as §1

[9] = system: Mycoplasma gallisepticum; assay: Effect of oral administration on chicken inoculated with Mycoplasma gallisepticum; format: in vivo; details: for Chickens developing disease in air sac (naked eye observation) / No. of dead chickens: 5 tested chickens
Description: Mycoplasma gallisepticum cells collected from chickens having respiratory Mycoplasma infection were cultured for 3 days in a Frey liquid media for Mycoplasma. 0.2 ml of this culture broth was injected into the trachea of chickens of an average body weight of 80 g using a 1 ml disposable injection needle. Beginning from the next day following the inoculation, feeds to which Compound (1) had been added in the amount of 100 ppm, 75 ppm, or 50 ppm were freely given to the chickens for 5 days. Following the administration of Compound (1) the chickens were given feed containing no drug for a further 5 days. The surviving chickens were sacrificed and dissected. After examination of the degree of disease in the air sac, Mycoplasma gallisepticum in the infraorbital sinus, trachea, lung, and air sac were determined. […] TABLE 6 […]

[10] = Acute toxicity test, intravenous injection; format: in vivo
Description: Representative test compounds, Compounds (2) and (3), were intravenously injected to mice. No fatality occurred at a dose of 200 mg/kg (10 mice/group), for Compound (2), and a dose of 200 mg/kg (6 mice/group), for Compound (3). From the results, the LD₅₀ values of the compounds are considered to be greater than 200 mg/kg.

[11] = system: Mycoplasma gallisepticum Strain T-7; assay: in vitro antimicrobial activity (MIC) in Frey liquid medium; format: cell-based; details: Mycoplasmoides gallisepticum, Mycoplasma gallisepticum Strain T-7, from chicken, 37°C, 3-5 days
Description: (§2) Various test strains of Mycoplasma gallisepticum derived from chicken were cultured in a Frey liquid medium for Mycoplasma for 3 days. The culture broth containing about 10⁸/ml cells was diluted to a volume of 100 times. The diluted broth was inoculated into Frey liquid media for Mycoplasma to which the compounds of this invention were added at prescribed concentrations. The cells were incubated at 37°C for 3-5 days while daily observing the color of the media. Among the culture broths maintaining yellow color at the time when the control to which no test compound was added turned red, the concentration of the broth having the minimum concentration was taken as the MIC of the compound.

[12] = system: Mycoplasma gallisepticum Strain T-2; assay: as above; format: cell-based; details: Mycoplasmoides gallisepticum; Mycoplasma gallisepticum Strain T-2, from chicken; Frey liquid medium, 37°C, 3-5 days; read-out: MIC
Description: as §2

[13] = system: Mycoplasma gallisepticum Strain 2004; assay: as above; format: cell-based; details: Mycoplasmoides gallisepticum, STRAIN2004; Mycoplasma gallisepticum Strain 2004, from chicken; Frey liquid medium, 37°C, 3-5 days; read-out: MIC
Description: as §2

[14] = system: Mycoplasma gallisepticum Strain 2012; assay: as above; format: cell-based; details: Mycoplasmoides gallisepticum, STRAIN2012; Mycoplasma gallisepticum Strain 2012, from chicken; Frey liquid medium, 37°C, 3-5 days; read-out: MIC
Description: as §2

[15] = system: Mycoplasma gallisepticum Strain DP-1047; assay: as above; format: cell-based; details: Mycoplasmoides gallisepticum; Mycoplasma gallisepticum Strain DP-1047, from chicken; Frey liquid medium, 37°C, 3-5 days; read-out: MIC
Description: as §2

[16] = system: Escherichia coli 881; assay: in vitro antimicrobial activity (MIC), agar dilution, Part 2; format: cell-based; details: Escherichia coli, 881, Escherichia coli 881, Pig; read-out: MIC
Description: as §1
(§3) MIC of Compounds (1)-(8) against various pathogenic bacteria derived from animals was determined in the same manner as in Example 1.

[17] = system: Escherichia coli S6W; assay: as above; format: cell-based; details: Escherichia coli, S6W, Escherichia coli S6W, Chicken; read-out: MIC
Description: as §1, §3

[18] = system: Salmonella typhimurium 103; assay: as above; format: cell-based; details: Salmonella enterica; Salmonella typhimurium 103, Chicken; read-out: MIC
Description: as §1, §3

[19] = system: Salmonella typhimurium 569; assay: as above; format: cell-based; details: Salmonella enterica, TYPHIMURIUM, Salmonella typhimurium 569, Pig; read-out: MIC
Description: as §1, §3

[20] = system: Escherichia coli 139; assay: as above; format: cell-based; details: Escherichia coli 139, Cow; read-out: MIC
Description: as §1, §3

[21] = system: Staphylococcus aureus Yamaguchi 6; assay: as above; format: cell-based; details: Staphylococcus aureus Yamaguchi 6, Chicken; read-out: MIC
Description: as §1, §3

[22] = system: Bordetella bronchiaseptica OKM-1; assay: as above; format: cell-based; details: Bordetella, OKM1, Bordetella bronchiaseptica OKM-1, Pig; read-out: MIC
Description: as §1, §3

[23] = system: Pasteurella multocida DB-12-1; assay: as above; format: cell-based; details: DB121; Pasteurella multocida DB-12-1, Pig; read-out: MIC
Description: as §1, §3

CC1COc2c(N3CCN(C)CC3)c(F)cc3c(=O)c(C(=O)O)cn1c23 (racemic) [Ofloxacin, reference compound]
Escherichia coli collected in Air sac ([1]; 12.5 ppm in feed for 5 days): 4.20 Logarithmic number of collected cells per 1 g of tissue | Escherichia coli collected in Lung ([1]; 12.5 ppm in feed for 5 days): 5.26 Logarithmic number of collected cells per 1 g of tissue | Escherichia coli collected in Trachea ([1]; 12.5 ppm in feed for 5 days): 7.48 Logarithmic number of collected cells per 1 g of tissue | Chickens developing disease in air sac (naked eye observation) ([1]; 12.5 ppm in feed for 5 days): 3 | No. of dead chickens ([1]; 12.5 ppm in feed for 5 days): 2 | Escherichia coli collected in Air sac ([1]; 25 ppm in feed for 5 days): 3.90 Logarithmic number of collected cells per 1 g of tissue | Escherichia coli collected in Lung ([1]; 25 ppm in feed for 5 days): 1.86 Logarithmic number of collected cells per 1 g of tissue | Escherichia coli collected in Trachea ([1]; 25 ppm in feed for 5 days): 4.58 Logarithmic number of collected cells per 1 g of tissue | Chickens developing disease in air sac (naked eye observation) ([1]; 25 ppm in feed for 5 days): 3 | No. of dead chickens ([1]; 25 ppm in feed for 5 days): 1 | Escherichia coli collected in Air sac ([1]; 50 ppm in feed for 5 days): 0 Logarithmic number of collected cells per 1 g of tissue | Escherichia coli collected in Lung ([1]; 50 ppm in feed for 5 days): 0 Logarithmic number of collected cells per 1 g of tissue | Escherichia coli collected in Trachea ([1]; 50 ppm in feed for 5 days): 0 Logarithmic number of collected cells per 1 g of tissue | Chickens developing disease in air sac (naked eye observation) ([1]; 50 ppm in feed for 5 days): 2 | No. of dead chickens ([1]; 50 ppm in feed for 5 days): 1 | MIC [2]: 0.39 µg/mL (≈ 1.08 µM) | MIC [3]: 0.05 µg/mL (≈ 0.138 µM) | MIC [4]: 0.2 µg/mL (≈ 0.553 µM) | MIC [5]: 0.05 µg/mL (≈ 0.138 µM) | MIC [6]: 0.1 µg/mL (≈ 0.277 µM) | MIC [7]: 0.1 µg/mL (≈ 0.277 µM) | MIC [8]: 0.1 µg/mL (≈ 0.277 µM) | Mycoplasma gallisepticum collected in Air sac ([9]; 50 ppm in feed for 5 days): 3.70 Logarithmic number of collected cells per 1 g of tissue | Mycoplasma gallisepticum collected in Infraorbital sinus ([9]; 50 ppm in feed for 5 days): 1/5 | Mycoplasma gallisepticum collected in Lung ([9]; 50 ppm in feed for 5 days): 4.78 Logarithmic number of collected cells per 1 g of tissue | Mycoplasma gallisepticum collected in Trachea ([9]; 50 ppm in feed for 5 days): 3.64 Logarithmic number of collected cells per 1 g of tissue | Chickens developing disease in air sac (naked eye observation) ([9]; 50 ppm in feed for 5 days): 1 | No. of dead chickens ([9]; 50 ppm in feed for 5 days): 0 | Mycoplasma gallisepticum collected in Air sac ([9]; 75 ppm in feed for 5 days): 0 Logarithmic number of collected cells per 1 g of tissue | Mycoplasma gallisepticum collected in Infraorbital sinus ([9]; 75 ppm in feed for 5 days): 0/5 | Mycoplasma gallisepticum collected in Lung ([9]; 75 ppm in feed for 5 days): 4.00 Logarithmic number of collected cells per 1 g of tissue | Mycoplasma gallisepticum collected in Trachea ([9]; 75 ppm in feed for 5 days): 3.82 Logarithmic number of collected cells per 1 g of tissue | Chickens developing disease in air sac (naked eye observation) ([9]; 75 ppm in feed for 5 days): 0 | No. of dead chickens ([9]; 75 ppm in feed for 5 days): 0 | Mycoplasma gallisepticum collected in Air sac ([9]; 100 ppm in feed for 5 days): 0 Logarithmic number of collected cells per 1 g of tissue | Mycoplasma gallisepticum collected in Infraorbital sinus ([9]; 100 ppm in feed for 5 days): 0/5 | Mycoplasma gallisepticum collected in Lung ([9]; 100 ppm in feed for 5 days): 0 Logarithmic number of collected cells per 1 g of tissue | Mycoplasma gallisepticum collected in Trachea ([9]; 100 ppm in feed for 5 days): 0 Logarithmic number of collected cells per 1 g of tissue | Chickens developing disease in air sac (naked eye observation) ([9]; 100 ppm in feed for 5 days): 0 | No. of dead chickens ([9]; 100 ppm in feed for 5 days): 0

CCCN1CCN(c2c(F)cc3c(=O)c(C(=O)O)cn4c3c2OCC4C)CC1 (racemic) [Compound (3), 3(RS)-9-fluoro-2,3-dihydro-3-methyl-10-(4-n-propyl-1-piperazinyl)-7-oxo-7H-pyrido[1,2,3-de] [1,4]benzoxazine-6-carboxylic acid]
fatality ([10]; mice, intravenously injected, dose of 200 mg/kg): No fatality | LD50 ([10]; mouse, in vivo, iv): > 200 mg/kg | Mycoplasma gallisepticum collected in Air sac ([9]; 50 ppm in feed for 5 days): 3.24 Logarithmic number of collected cells per 1 g of tissue | Mycoplasma gallisepticum collected in Infraorbital sinus ([9]; 50 ppm in feed for 5 days): 0/5 | Mycoplasma gallisepticum collected in Lung ([9]; 50 ppm in feed for 5 days): 2.38 Logarithmic number of collected cells per 1 g of tissue | Mycoplasma gallisepticum collected in Trachea ([9]; 50 ppm in feed for 5 days): 0 Logarithmic number of collected cells per 1 g of tissue | Chickens developing disease in air sac (naked eye observation) ([9]; 50 ppm in feed for 5 days): 0 | No. of dead chickens ([9]; 50 ppm in feed for 5 days): 0 | Mycoplasma gallisepticum collected in Air sac ([9]; 75 ppm in feed for 5 days): 0 Logarithmic number of collected cells per 1 g of tissue | Mycoplasma gallisepticum collected in Infraorbital sinus ([9]; 75 ppm in feed for 5 days): 0/5 | Mycoplasma gallisepticum collected in Lung ([9]; 75 ppm in feed for 5 days): 0 Logarithmic number of collected cells per 1 g of tissue | Mycoplasma gallisepticum collected in Trachea ([9]; 75 ppm in feed for 5 days): 0 Logarithmic number of collected cells per 1 g of tissue | Chickens developing disease in air sac (naked eye observation) ([9]; 75 ppm in feed for 5 days): 0 | No. of dead chickens ([9]; 75 ppm in feed for 5 days): 0 | Mycoplasma gallisepticum collected in Air sac ([9]; 100 ppm in feed for 5 days): 0 Logarithmic number of collected cells per 1 g of tissue | Mycoplasma gallisepticum collected in Infraorbital sinus ([9]; 100 ppm in feed for 5 days): 0/5 | Mycoplasma gallisepticum collected in Lung ([9]; 100 ppm in feed for 5 days): 0 Logarithmic number of collected cells per 1 g of tissue | Mycoplasma gallisepticum collected in Trachea ([9]; 100 ppm in feed for 5 days): 0 Logarithmic number of collected cells per 1 g of tissue | Chickens developing disease in air sac (naked eye observation) ([9]; 100 ppm in feed for 5 days): 0 | No. of dead chickens ([9]; 100 ppm in feed for 5 days): 0 | MIC [11]: 0.39 µg/mL (≈ 1 µM) | MIC [12]: 0.2 µg/mL (≈ 0.514 µM) | MIC [13]: 0.025 µg/mL (≈ 0.0642 µM) | MIC [14]: 0.05 µg/mL (≈ 0.128 µM) | MIC [15]: 0.2 µg/mL (≈ 0.514 µM) | MIC [16]: 0.2 µg/mL (≈ 0.514 µM) | MIC [17]: 0.39 µg/mL (≈ 1 µM) | MIC [18]: 0.78 µg/mL (≈ 2 µM) | MIC [19]: 0.39 µg/mL (≈ 1 µM) | MIC [20]: 0.39 µg/mL (≈ 1 µM) | MIC [21]: 0.78 µg/mL (≈ 2 µM) | MIC [22]: 0.78 µg/mL (≈ 2 µM) | MIC [23]: 0.1 µg/mL (≈ 0.257 µM)
